Experiment [1] deals with embryonic stages of S. digitata. Put plainly: Intra cellular expression of CED-4 protein, flow cytometry. The experiment is classed as cell-based, Setaria digitata. The note with it: 24 hr. How it is done:
Adult female filarial worms Setaria digitata were collected from the peritoneum of cattle, slaughtered at a nearby abattoir in sterile Hanks Balanced Salt Solution (HBSS) medium (Sigma H 2387-1L) and transported to the laboratory in a sterile container. The medium containing 1% glucose (Sigma G 7528), Penicillin 100 units/ml, Streptomycin 100 μg/ml (Sigma P 4333). And Amphotericin-B 0.25 μg/ml (Sigma A 2942) was buffered with NaHCO3 (Sigma S 5761). About 5 to 7 worms were taken in a petridish, washed three times in medium, dissected into small pieces in 10 ml of medium under sterile conditions and incubated at 37° C. for 30 minutes to allow the release of embryonic stages (eggs and microfilariae) into the medium. The embryonic stages were harvested into sterile 15 ml. centrifuge tubes and washed three times by centrifuging at 300 g for 10 minutes each with medium and the final pellet was suspended in 1 ml. of RPMI-1640 medium (Sigma R 8005) supplemented with 10% FBS (Sigma F 2442) The number of embryonic stages of S. digitata in the above preparation were counted using light microscope, and the suspension was taken in RPMI-1640 medium containing 10% FBS at 1×10^5 embryonic stages/ml. One ml. each was dispensed into individual wells of a 24 well tissue culture plate. One set of wells was taken as untreated control containing only medium with 10% FBS. […] Motility of the Mf was scored under an inverted microscope. After appropriate treatment and incubation, each set of the cultured embryonic stages of S. digitata were harvested from the 24 well tissue culture plate separately in 15 ml. sterile centrifuge tubes, washed with PBS twice and stained as per requirement following manufacturer's instructions as described below. This was followed by two times washing with PBS and final suspension of the stained embryonic stages was taken in 0.5 ml of sheath fluid (BD Biosciences 342003) before their acquisition in the flow cytometer (BD FACS Calibur, Becten and Dickinson, USA). Analysis was performed on 10,000-acquired events depicted as Dot Plots and Histogram Plots using Cellquest Pro soft ware. All plots were representative of at least 3 experiments. The distinctly clustered populations obtained consistently in the Dot plots for the intra uterine embryonic stages of S. digitata (FIG. 1 a) were gated for Mfs (R-1) and eggs (R-2 and R-3) and analyzed for different assays for apoptosis as described below. After in vitro culture for 24 hours with apoptosis inducing reagents the embryonic stages were harvested in 15 ml. sterile centrifuge tubes and fixed for 60 minutes at 0° C. in 1% paraformaldehyde (Sigma P 6148) in PBS. The suspension was washed first with PBS and then with 1× permeabilisation buffer (eBioscience 00-8333-56) and finally resuspended in 100 μl of 1× permeabilisation buffer at 1×10^5 embryonic stages per ml. The intracellular expression of CED-4 was scored by incubation of the fixed and permeabilised embryonic stages with primary goat antibodies—anti CED-4 (Santacruz sc-9193) followed by probing with PE conjugated secondary anti goat IgG-PE (Santacruz sc-3747) antibodies. Incubation of both primary and secondary antibodies (both 1/100 diluted) was done successively in 1× permeabilisation buffer (e Bioscience 00-8333-56) for 1 hr and 45 minutes respectively. The suspension of stained embryonic stages was then washed with PBS twice and finally reading was taken by flow cytometry or confocal microscopy.
(In general: A flow cytometer gives signals particle by particle.)

Experiment [2] has the same test system. Briefly: Mitochondrial depolarization, mitoscreen JC-1 staining. It is filed as cell-based, Setaria digitata. The note with it: for GMI (Geometric Mean Intensity) of Fluorescence, Mitoscreen-jc-1 staining (Mitochondrial Depolarisation assay): 24 hr, depolarisation = reduction in GMI; for induction of mitochondrial depolarization (result in words): Mfs and eggs, mitoscreen JC-1 staining. How it is done: Adult female filarial worms Setaria digitata were collected from the peritoneum of cattle, slaughtered at a nearby abattoir in sterile Hanks Balanced Salt Solution (HBSS) medium (Sigma H 2387-1L) and transported to the laboratory in a sterile container. The medium containing 1% glucose (Sigma G 7528), Penicillin 100 units/ml, Streptomycin 100 μg/ml (Sigma P 4333). And Amphotericin-B 0.25 μg/ml (Sigma A 2942) was buffered with NaHCO3 (Sigma S 5761). About 5 to 7 worms were taken in a petridish, washed three times in medium, dissected into small pieces in 10 ml of medium under sterile conditions and incubated at 37° C. for 30 minutes to allow the release of embryonic stages (eggs and microfilariae) into the medium. The embryonic stages were harvested into sterile 15 ml. centrifuge tubes and washed three times by centrifuging at 300 g for 10 minutes each with medium and the final pellet was suspended in 1 ml. of RPMI-1640 medium (Sigma R 8005) supplemented with 10% FBS (Sigma F 2442)
The number of embryonic stages of S. digitata in the above preparation were counted using light microscope, and the suspension was taken in RPMI-1640 medium containing 10% FBS at 1×10^5 embryonic stages/ml. One ml. each was dispensed into individual wells of a 24 well tissue culture plate. One set of wells was taken as untreated control containing only medium with 10% FBS. […] Motility of the Mf was scored under an inverted microscope.
After appropriate treatment and incubation, each set of the cultured embryonic stages of S. digitata were harvested from the 24 well tissue culture plate separately in 15 ml. sterile centrifuge tubes, washed with PBS twice and stained as per requirement following manufacturer's instructions as described below. This was followed by two times washing with PBS and final suspension of the stained embryonic stages was taken in 0.5 ml of sheath fluid (BD Biosciences 342003) before their acquisition in the flow cytometer (BD FACS Calibur, Becten and Dickinson, USA). Analysis was performed on 10,000-acquired events depicted as Dot Plots and Histogram Plots using Cellquest Pro soft ware. All plots were representative of at least 3 experiments. The distinctly clustered populations obtained consistently in the Dot plots for the intra uterine embryonic stages of S. digitata (FIG. 1 a) were gated for Mfs (R-1) and eggs (R-2 and R-3) and analyzed for different assays for apoptosis as described below.
The mitochondrial membrane potential (ΔΨm) was measured using JC-1 probe (a cataionic lipophilic fluorochrome that accumulates in mitochondria in proportion to mitochondrial membrane potential) supplied in mitoscreen JC-1 kit (BD Biosciences 551302). Briefly a suspension of in-vitro cultured embryonic stages at 1×10^5 embryonic stages/ml. was mixed with 0.5 ml of freshly prepared JC-1 working solution for 10-15 minutes at 37° C. in a CO2 incubator followed by two times washing and final suspension of the embryonic stages in 1× assay buffer (supplied with the kit) before acquisition and analysis by flow cytometry. Reduction of fluorescence intensity of the mitoscreen JC-1 stained embryonic stages was taken as the degree of depolarization of mitochondria.

Each structure is given as a SMILES string. “And” between values parts separate entries of the source, which are not always exact repeats. Identical values can stand only once.

On to `OO` [H2O2], for which the “GMI (Geometric Mean Intensity) of Fluorescence, CED-4 Expression” value (“GMI … CED-4 Expression” below) in experiment [1] (Eggs, 10 μM) was 99.36 and 100.32 and 95.29; in experiment [1] (Microfilariae, 10 μM), 15.72 and 17.33 and 16.26. Moreover, the “GMI (Geometric Mean Intensity) of Fluorescence, Mitoscreen-jc-1 staining (Mitochondrial Depolarisation assay)” value (from here on “GMI … (Mitochondrial Depolarisation assay)”) in experiment [2] (Eggs, 10 μM) is 1225.16 and 1165.12 and 1295.39; in experiment [2] (Microfilariae, 10 μM), 785.33 and 823.57 and 750.62. Further, the “induction of mitochondrial depolarization (result in words)” value in experiment [2] is reported as “dose dependent induction of mitochondrial depolarization was observed”.
As for `CN[C@@H]1C[C@H]2O[C@@](C)([C@@H]1OC)n1c3ccccc3c3c4c(c5c6ccccc6n2c5c31)C(=O)NC4` [Staurosporine], the “GMI … CED-4 Expression” value in experiment [1] (Eggs, 1 μM) is 95.67 and 97.28 and 96.32; in experiment [1] (Microfilariae, 1 μM), 9.01 and 9.92 and 8.25. Also, the “GMI … (Mitochondrial Depolarisation assay)” value in experiment [2] (Eggs, 1 μM) is 1549.35 and 1500.65 and 1510.50; in experiment [2] (Microfilariae, 1 μM) it was 895.30 and 979.20 and 930.16.
`CC1=CC(=O)c2c(O)cccc2C1=O` [Plumbagin]: the “GMI … CED-4 Expression” value in experiment [1] (Eggs, 10 μM) was 209.76 and 213.57 and 210.32; in experiment [1] (Microfilariae, 10 μM), 35.97 and 38.27 and 33.39. The “GMI … (Mitochondrial Depolarisation assay)” value in experiment [2] (Eggs, 10 μM) was 970.16 and 1078.76 and 897.56; in experiment [2] (Microfilariae, 10 μM), 435.26 and 476.20 and 398.76. Moreover, the “induction of mitochondrial depolarization (result in words)” value in experiment [2] was “dose dependent induction of mitochondrial depolarization was observed”.

The record behind these values is patent US20110124523A1, “High Throughput Method for Detecting Apoptosis of Embryonic Stages of Metazoan Helminthic Parasites” (INSTITUTE OF LIFE SCIENCES, priority 2009, published 2011).
